The record followed here is patent US8912181B2 (Taiho Pharmaceutical Co., Ltd., priority 2011, dated 2014).

Test [1] concerns the target human HSP90 alpha protein (N-terminal, amino acids 2 to 236) (Homo sapiens (Human), UniProt P07900). As to the kind of experiment: Determination of HSP90-binding activity (AlphaScreen competitive assay with biotinylated geldanamycin). Particulars: inhibition of binding of biotinylated geldanamycin to purified HSP90 N-terminal protein, read-out: HSP-binding activity IC50. The method, then:
First, a purified HSP90 solution was prepared as follows: a human HSP90 alpha gene (NCBI Reference Sequence accession no. NM-005348) region corresponding to amino acids 2 to 236 of human HSP90 alpha protein (NCBI Reference Sequence accession no. NP-005339; full length: 732 amino acids) was inserted to pET-19b (Novagen; Merck KGaA) to construct a plasmid pET-HS[…] for expression of the HSP90 N-terminal protein having a His-tag at the N-terminus. E. coli (BL21(DE3), Stratagene Corp.) was transformed with pET-HS[…] and then cultured at 37° C. for 4 hours in the presence of 0.5 mM isopropyl-beta-D-thiogalactopyranoside (Sigma-Aldrich Corp.). The collected E. coli was suspended in a lysis buffer (50 mM Tris-HCl (pH 7.5), 200 mM NaCl) and sonicated. The sonicated cell solution was centrifuged (40,000×g, 20 minutes), and the supernatant was used as a crude extract. This crude extract was fractionated using Ni Sepharose High Performance (GE Healthcare Japan Corp.) chromatography and HiLoad 26/60 Superdex 75 pg (GE Healthcare Japan Corp.). Then, a fraction of HSP90 protein concentrates was prepared in a solution containing 50 mM Tris-HCl (pH 7.5) and 20% glycerol as a purified HSP90 solution. The purified HSP90 solution was divided and stored at -80° C. until use. HSP90-binding activity was determined by an AlphaScreen competitive assay system. […] After reaction at room temperature for 2 hours, biotinylated geldanamycin was added thereto at a concentration of 40 nM/well and further reacted for 1 hour. Detection mix (20 mM HEPES-KOH (pH 7.5), 0.5% BSA, 0.04 mg/mL Nickel Chelate Acceptor beads, 0.04 mg/mL Streptavidin-coated Donor beads) (#6760619C, PerkinElmer, Inc.) was added to each well in an amount equal to the amount of the reaction solution and reacted at room temperature for 1 hour in the dark. Then, fluorescence intensity was measured using Multilabel Plate Reader EnVision (PerkinElmer, Inc.). Percent inhibition (%) of the binding of biotinylated geldanamycin by each compound of the present invention was determined according to the formula shown below with the fluorescence signal of no test substance addition group as a control. […] Percent inhibition (%)=(C-T)/C×100, wherein T: Signal of well with test substance addition C: Signal of well without test substance addition.

The next test has as its system SK-BR-3 cells. The test is described as follows: Determination of cell growth inhibition (crystal violet staining method). It is filed as cell-based. The conditions noted are these: Homo sapiens; breast cancer cells SK-BR-3, 72 hours culture with test substance. The method, then: Cell growth was assayed by a crystal violet staining method. SK-BR-3 cells (HTB-30) purchased from American Type Culture Collection were inoculated at a concentration of 5,000 cells/well to a 96-well plate (#353075, BD Biosciences). After culture at 37° C. for 24 hours in a 5% CO2 incubator, each test substance was added thereto, and the cells were further cultured for 72 hours. A 25% glutaraldehyde solution (#17025-25, Nacalai Tesque, Inc.) was added thereto at a concentration of 20 μL/well per 200 μL of the medium, and the plate was incubated at room temperature for 20 minutes to fix the cells. The plate was washed with water and dried. Then, a solution containing 0.05% crystal violet (#038-17792, Wako Pure Chemical Industries, Ltd.) and 20% methanol was added thereto at a concentration of 100 μL/well, and the plate was incubated at room temperature for 20 minutes to stain the cells. The plate was washed with water and dried. A mixed solution of 0.05 M NaH2PO4 and ethanol (mixed in equal amounts) was added thereto at a concentration of 100 μL/well. Absorbance was measured at 540 nm using a microplate reader (MTP-450, Corona Electric Co., Ltd.) and used as an index for the number of cells per well. Percent inhibition (%) of cell growth by each compound of the present invention was determined according to the formula shown below with the absorbance of no drug addition group as a control. […] Percent inhibition (%)=(C−T)/C×100, wherein T: Absorbance of well with test substance addition C: Absorbance of well without test substance addition.

In general, IC50 refers to the concentration needed to halve the response being measured. In the case of `Cc1nc2ncc(-c3cccc4c(-c5ccc(C(N)=O)c(NC6CCC(O)CC6)c5)nccc34)cc2[nH]1` (centres unmarked) [Example 40, 2-(4-Hydroxycyclohexylamino)-4-(5-(2-methyl-1H-imidazo[4,5-b]pyridin-6-yl)isoquinolin-1-yl)benzamide], the IC50 turned out to be 150 nM in test [1] and 540 nM in the test with SK-BR-3 cells.
Consider `Cc1ccc(-c2cn(-c3cccc4c(-c5ccc(C(N)=O)c(N)c5)cc(C(F)(F)F)nc34)cn2)cn1` [Example 118, 2-Amino-4-(8-(4-(6-methylpyridin-3-yl)-1H-imidazol-1-yl)-2-(trifluoromethyl)quinolin-4-yl)benzamide], for which the IC50 in test [1] turned out to be 250 nM; in the test on SK-BR-3 cells, 60 nM.
`CC(C)Nc1cc(-c2cc(C(F)(F)F)nc3c(-n4cnc(-c5cnn(C)c5)c4)cccc23)ccc1C(N)=O` [Example 64]: the IC50 in test [1] worked out at 170 nM; in the test on SK-BR-3 cells, 10 nM.
Regarding `CCNc1cc(-c2cc(C(F)(F)F)nc3c(-n4cnc(-c5cnn(CC)c5)c4)cccc23)ccc1C(N)=O` [Example 89, 4-(8-(4-(1-Ethyl-1H-pyrazol-4-yl)-1H-imidazol-1-yl)-2-(trifluoromethyl)quinolin-4-yl)-2-(ethylamino)benzamide], the values for the IC50 (in test [1]; with SK-BR-3 cells) were 220 nM and 10 nM, respectively.
Consider `COCCNc1cc(-c2nccc3c(-n4cnc(-c5cnn(C)c5)c4)cccc23)ccc1C(N)=O` [Example 62, 2-(2-Methoxyethylamino)-4-(5-(4-(1-methyl-1H-pyrazol-4-yl)-1H-imidazol-1-yl)isoquinolin-1-yl)benzamide], for which the values for the IC50 (in test [1]; in the test on SK-BR-3 cells) were 210 nM and 260 nM, respectively.
In the same order, the values of `CCc1cc(-c2ccc(C(N)=O)c(N)c2)c2cccc(-c3cnc4ccccc4c3)c2n1` [Example 120, 2-Amino-4-(2′-ethyl-3,8′-biquinolin-4′-yl)benzamide] are 190 nM and 30 nM.
The like results for `NC(=O)c1ccc(-c2cc(C(F)(F)F)nc3c(-n4cnc(-c5cccnc5)c4)cccc23)cn1` [Example 88, 5-(8-(4-(Pyridin-3-yl)-1H-imidazol-1-yl)-2-(trifluoromethyl)quinolin-4-yl)picolinamide] were, in that order, 350 nM and 70 nM.
The like results for `CCNc1cc(-c2cccc3c(-n4cnc(-c5cnn(C)c5)c4)nccc23)ccc1C(N)=O` [Comp. Ex. 3, 2-(Ethylamino)-4-(1-(4-(1-methyl-1H-pyrazol-4-yl)-1H-imidazol-1-yl)isoquinolin-5-yl)benzamide, reference compound] were, in that order, over 100000 nM and 7630 nM.
For the compound `CC(C)(C)Nc1cc(-c2cc(C(F)(F)F)nc3c(-c4cnc5ccccc5c4)cccc23)ccc1C(N)=O` [Example 5, 2-(Tert-butylamino)-4-(2′-(trifluoromethyl)-3,8′-biquinolin-4′-yl)benzamide], the values for the IC50 (in test [1]; with SK-BR-3 cells) were 1440 nM and 90 nM, respectively.
`Cc1cc2c(-n3cnc(-c4cnn(C)c4)c3)cccc2c(-c2ccc(C(N)=O)c(NC(C)C)c2)n1` [Example 67, 2-(Isopropylamino)-4-(3-methyl-5-(4-(1-methyl-1H-pyrazol-4-yl)-1H-imidazol-1-yl)isoquinolin-1-yl)benzamide]: the IC50 came out at 210 nM in test [1] and 20 nM in the test on SK-BR-3 cells.
Consider `CNc1cncc(-c2cccc3c(-c4ccc(C(N)=O)c(NC5CCC(O)CC5)c4)nccc23)c1` (centres unmarked) [Example 34, 2-(4-Hydroxycyclohexylamino)-4-(5-(5-(methylamino)pyridin-3-yl)isoquinolin-1-yl)benzamide], for which the values for the IC50 (in test [1]; with SK-BR-3 cells) were 140 nM and 50 nM, respectively.
Turning to `CC(C)(C)Nc1cc(-c2cc(C(F)(F)F)nc3c(-n4cnc(-c5cccnc5)c4)cccc23)ccc1C(N)=O` [Example 76, 2-(Tert-butylamino)-4-(8-(4-(pyridin-3-yl)-1H-imidazol-1-yl)-2-(trifluoromethyl)quinolin-4-yl)benzamide], the IC50 in test [1] came out at 200 nM; in the test on SK-BR-3 cells, 40 nM.
On to `NC(=O)c1ccc(-c2nccc3c(-n4cnc(-c5cccnc5)c4)cccc23)cc1NC1CCC(O)CC1` (centres unmarked) [Example 32, 2-(4-Hydroxycyclohexylamino)-4-(5-(4-(pyridin-3-yl)-1H-imidazol-1-yl)isoquinolin-1-yl)benzamide], for which the IC50 in test [1] was 80 nM; in the test with SK-BR-3 cells, 20 nM.
The like results for `CCNc1cc(-c2cc(C(F)(F)F)nc3c(-n4cnc(-c5cnn(C)c5)c4)cccc23)ccc1C(N)=O` [Example 3, 2-(Ethylamino)-4-(8-(4-(1-methyl-1H-pyrazol-4-yl)-1H-imidazol-1-yl)-2-(trifluoromethyl)quinolin-4-yl)benzamide] were, in that order, 190 nM and 10 nM.
In the same order, the values of `CCCNc1cc(C(N)=O)ccc1-c1cc(C(F)(F)F)nc2c(-n3cnc(-c4cnn(C)c4)c3)cccc12` [Example 87, 4-(8-(4-(1-Methyl-1H-pyrazol-4-yl)-1H-imidazol-1-yl)-2-(trifluoromethyl)quinolin-4-yl)-3-(propylamino)benzamide] are 280 nM and 80 nM.
`NC(=O)c1ccc(-c2ccnc3c(-n4cnc(-c5cccnc5)c4)cccc23)cc1N` [Example 133]: the IC50 in test [1] was 840 nM; in the test with SK-BR-3 cells it was 1320 nM.
With `NC(=O)c1ccc(-c2nc(C3CC3)nc3c(-c4cnc5ccccc5c4)cccc23)cc1NC1CCC(O)CC1` (centres unmarked) [Example 115, 4-(2-Cyclopropyl-8-(quinolin-3-yl)quinazolin-4-yl)-2-(4-hydroxycyclohexylamino)benzamide], the IC50 in test [1] was 140 nM; in the test on SK-BR-3 cells, 10 nM.
In the same order, the values of `CC(C)c1cc(-c2ccc(C(N)=O)c(N)c2)c2cccc(-n3cnc(-c4cccnc4)c3)c2n1` [Example 123, 2-Amino-4-(2-isopropyl-8-(4-(pyridin-3-yl)-1H-imidazol-1-yl)quinolin-4-yl)benzamide] are 160 nM and 10 nM.
Turning to `Cc1cc(C(N)=O)ccc1-c1cc(C(F)(F)F)nc2c(-n3cnc(-c4cnn(C(F)F)c4)c3)cccc12` [Example 94, 4-(8-(4-(1-Difluoromethyl-1H-pyrazol-4-yl)-1H-imidazol-1-yl)-2-(trifluoromethyl)quinolin-4-yl)-3-methylbenzamide], the IC50 in test [1] was 500 nM; in the test with SK-BR-3 cells it was 110 nM.
Turning to `Cc1cc2c(-n3cnc(-c4cnn(C)c4)c3)cccc2c(-c2ccc(C(N)=O)cc2C)n1` [Example 95, 3-Methyl-4-(3-methyl-5-(4-(1-methyl-1H-pyrazol-4-yl)-1H-imidazol-1-yl)isoquinolin-1-yl)benzamide], the IC50 in test [1] was 400 nM; with SK-BR-3 cells, 1020 nM.
The like results for `Cn1cc(-c2cn(-c3cccc4c(-c5ccc(C(N)=O)cc5N)nc(C(F)(F)F)nc34)cn2)cn1` [Example 75, 3-Amino-4-(8-(4-(1-methyl-1H-pyrazol-4-yl)-1H-imidazol-1-yl)-2-(trifluoromethyl)quinazolin-4-yl)benzamide] were, in that order, 210 nM and 330 nM.
The like results for `CNc1cc(-c2nccc3c(-n4cnc(-c5cnn(C)c5)c4)cccc23)ccc1C(N)=O` [Example 58, 4-(5-(4-(1-Methyl-1H-pyrazol-4-yl)-1H-imidazol-1-yl)isoquinolin-1-yl)-2-(methylamino)benzamide] were, in that order, 250 nM and 1440 nM.
